Reference: US10550100B2, “5-[3-[piperzin-1-yl]-3-oxo-propyl]-imidazolidine-2,4-dione derivatives as ADAMTS 4 and 5 inhibitors for treating E.G. osteoarthritis” (GALAPAGOS NV, priority 2016, dated 2020)
Where two headings read alike, the source gives them in different places.

Assays:
Format in all cases: biochemical
human MMP13 [1] = molecular target: T1, human MMP13 (Homo sapiens (Human), UniProt P45452); assay: hMMP13 390 MMP FRET Substrate I cleavage assay, Protocol 1; conditions: Protocol 1, 390 MMP FRET Substrate I; read-out: hMMP-13 potency IC50
Method: (§1) The basis for the assay is the cleavage of the substrate 390 MMP FRET Substrate I (Anaspec Cat# AS-27076) by human MMP13 (Chemicon, Cat#CC068).
(§2) Human MMP13 is preactivated by incubated the enzyme in the same buffer complemented with 1 mM freshly prepared p-Aminophenylmercuric acetate (AMPA) for 1 h at 37° C.
(§3) The reaction is initiated by adding to the assay plate 390 MMP FRET Substrate I (10 μL, 2.5 μM) in the same buffer.
(§4) Finally, the fluorescence is read on the Envision (Perkin Elmer) after an incubation of 45 min at room temperature (Excitation 485 nm, Emission 530).

human TACE = human TACE (Homo sapiens (Human), UniProt P78536); assay: hTACE 5FAM-[…]-5TAMRA cleavage assay; conditions: 75 min at room temperature, read-out: hTACE potency IC50
Method: Finally, the fluorescence is read on the Envision (Perkin Elmer) after an incubation of 75 min at room temperature (Excitation 485 nm, Emission 530).

rnADAMTS-5 (1-564-6H) = rnADAMTS-5 (1-564-6H) (Rattus norvegicus (Rat), UniProt Q6TY19); assay: Rat ADAMTS-5 TBIS-1 substrate cleavage assay; conditions: rnADAMTS-5, TBIS-1 substrate, 120 min at 37° C.; read-out: Rat ADAMTS-5 potency IC50
Method: The basis for the assay is the cleavage of the substrate TBIS-1 (5 FAM-[…] (5TAMRA)K-NH2) (SEQ ID NO: 2) by rnADAMTS-5 (1-564-6H).
(§5) The reaction is initiated by adding to the assay plate TBIS-1 (10 μL, 4.5 μM, Anaspec) in the same buffer.
Finally, the fluorescence is read on the Envision (Perkin Elmer) after an incubation of 120 min at 37° C. (Excitation 485 nm, emission 535).

human ADAMTS6 = human ADAMTS6 (Homo sapiens (Human), UniProt Q9UKP5); assay: hADAMTS-6 520 MMP FRET substrate XII cleavage assay; conditions: 37° C. for 2 h, read-out: hADAMTS-6 potency IC50
Outline: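 FRET cleavage of 520 MMP Substrate XII (Arg-Pro-Lys-Pro-Tyr-Ala-Nva-Trp-Met-Lys) by 0.73 nM enzyme in 25 mM Tris pH8.0, 0.05% CHAPS, 2.5 mM CaCl2. Compound dilution series from 20 μM top, 1/5 steps; substrate added from 1 μM stock, 2 h at 37° C. Fluorescence read at exc485/em530 for IC50.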

human ADAMTS-5 [2] = molecular target: T2, human ADAMTS-5 (Homo sapiens (Human), UniProt Q9UNA0); assay: hADAMTS-5 TBIS-1 cleavage assay, Protocol 3; conditions: Protocol 3, TBIS-1 substrate, 90 min at 37° C.; read-out: hADAMTS-5 potency IC50
Method: as §5
Finally, the fluorescence is read on the Envision (Perkin Elmer) after an incubation of 90 min at 37° C. (Excitation 485 nm, emission 530).

human ADAMTS-5 [3] = molecular target: T2, human ADAMTS-5; assay: hADAMTS-5 TBIS-1 cleavage assay, Protocol 2; conditions: Protocol 2, TBIS-1 substrate, 45 min at 37° C.; read-out: hADAMTS-5 potency IC50
Method: The basis for the assay is the cleavage of the substrate TBIS-1 (5 FAM-[…] (5TAMRA)K-NH2) (SEQ ID NO: 2) by human ADAMTS-5.
as §5
Finally, the fluorescence is read on the Envision (Perkin Elmer) after an incubation of 45 min at 37° C. (Excitation 485 nm, emission 530).

human MMP14 = human MMP14 (Homo sapiens (Human), UniProt P50281); assay: hMMP14 390 MMP FRET Substrate I cleavage assay; conditions: 60 min at room temperature, read-out: hMMP-14 potency IC50
Method: The basis for the assay is the cleavage of the substrate 390 MMP FRET Substrate I (Anaspec Cat# AS-27076) by human MMP14 (Biomol, Cat#SE-259).
as §3
Finally, the fluorescence is read on the Envision (Perkin Elmer) after an incubation of 60 min at room temperature (Excitation 485 nm, Emission 530).

human MMP13 [4] = molecular target: T1, human MMP13; assay: hMMP13 390 MMP FRET Substrate I cleavage assay, Protocol 2; conditions: Protocol 2, 390 MMP FRET Substrate I; read-out: hMMP-13 potency IC50
Method: as §1, §2, §3, §4

Chain of rnADAMTS-5 (1-564-6H) (Q6TY19 entry or part of it): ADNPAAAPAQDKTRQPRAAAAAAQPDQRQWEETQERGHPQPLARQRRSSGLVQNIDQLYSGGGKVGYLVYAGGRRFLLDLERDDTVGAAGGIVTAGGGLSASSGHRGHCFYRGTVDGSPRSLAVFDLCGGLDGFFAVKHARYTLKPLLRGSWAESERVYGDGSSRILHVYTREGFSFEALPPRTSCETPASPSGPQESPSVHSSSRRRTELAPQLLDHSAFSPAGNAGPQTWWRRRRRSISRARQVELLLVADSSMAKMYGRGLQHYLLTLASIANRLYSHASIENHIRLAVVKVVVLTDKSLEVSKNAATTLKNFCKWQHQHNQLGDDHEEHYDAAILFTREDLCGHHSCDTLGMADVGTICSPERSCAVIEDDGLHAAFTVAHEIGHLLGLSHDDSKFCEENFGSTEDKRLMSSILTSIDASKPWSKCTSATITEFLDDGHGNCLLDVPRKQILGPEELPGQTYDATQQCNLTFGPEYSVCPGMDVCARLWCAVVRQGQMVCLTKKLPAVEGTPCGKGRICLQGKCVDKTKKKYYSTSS
Chain of human TACE (P78536 215-671): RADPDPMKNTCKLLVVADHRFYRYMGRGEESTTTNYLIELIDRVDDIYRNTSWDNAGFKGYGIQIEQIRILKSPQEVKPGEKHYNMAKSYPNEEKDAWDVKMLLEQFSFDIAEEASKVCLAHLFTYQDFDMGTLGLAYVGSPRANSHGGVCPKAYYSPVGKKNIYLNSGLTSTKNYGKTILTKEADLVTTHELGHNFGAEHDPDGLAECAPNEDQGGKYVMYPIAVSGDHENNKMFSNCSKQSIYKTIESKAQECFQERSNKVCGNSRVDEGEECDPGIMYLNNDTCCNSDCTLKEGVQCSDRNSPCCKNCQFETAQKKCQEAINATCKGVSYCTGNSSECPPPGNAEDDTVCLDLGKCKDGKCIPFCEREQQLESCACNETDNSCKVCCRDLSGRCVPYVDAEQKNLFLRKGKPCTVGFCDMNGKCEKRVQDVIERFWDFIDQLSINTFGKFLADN
Chain of human ADAMTS6 (Q9UKP5 other isoform, or with tags, fused parts or gaps): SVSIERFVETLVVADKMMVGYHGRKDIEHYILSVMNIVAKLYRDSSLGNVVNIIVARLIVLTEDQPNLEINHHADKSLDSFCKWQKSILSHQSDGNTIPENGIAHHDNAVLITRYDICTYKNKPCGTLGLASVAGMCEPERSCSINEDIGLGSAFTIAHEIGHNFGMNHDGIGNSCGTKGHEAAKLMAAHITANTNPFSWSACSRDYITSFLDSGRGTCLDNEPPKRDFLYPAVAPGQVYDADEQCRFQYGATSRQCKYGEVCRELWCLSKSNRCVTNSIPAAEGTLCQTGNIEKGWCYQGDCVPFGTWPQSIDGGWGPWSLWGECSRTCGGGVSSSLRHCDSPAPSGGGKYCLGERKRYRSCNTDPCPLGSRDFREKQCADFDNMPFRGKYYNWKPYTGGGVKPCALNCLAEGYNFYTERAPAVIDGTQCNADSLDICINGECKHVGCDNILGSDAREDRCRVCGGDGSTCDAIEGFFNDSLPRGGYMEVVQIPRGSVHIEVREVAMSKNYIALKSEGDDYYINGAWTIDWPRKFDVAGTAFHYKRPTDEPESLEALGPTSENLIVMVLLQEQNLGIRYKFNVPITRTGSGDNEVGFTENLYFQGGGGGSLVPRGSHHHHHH
T2 sequence (Q9UNA0 262-930): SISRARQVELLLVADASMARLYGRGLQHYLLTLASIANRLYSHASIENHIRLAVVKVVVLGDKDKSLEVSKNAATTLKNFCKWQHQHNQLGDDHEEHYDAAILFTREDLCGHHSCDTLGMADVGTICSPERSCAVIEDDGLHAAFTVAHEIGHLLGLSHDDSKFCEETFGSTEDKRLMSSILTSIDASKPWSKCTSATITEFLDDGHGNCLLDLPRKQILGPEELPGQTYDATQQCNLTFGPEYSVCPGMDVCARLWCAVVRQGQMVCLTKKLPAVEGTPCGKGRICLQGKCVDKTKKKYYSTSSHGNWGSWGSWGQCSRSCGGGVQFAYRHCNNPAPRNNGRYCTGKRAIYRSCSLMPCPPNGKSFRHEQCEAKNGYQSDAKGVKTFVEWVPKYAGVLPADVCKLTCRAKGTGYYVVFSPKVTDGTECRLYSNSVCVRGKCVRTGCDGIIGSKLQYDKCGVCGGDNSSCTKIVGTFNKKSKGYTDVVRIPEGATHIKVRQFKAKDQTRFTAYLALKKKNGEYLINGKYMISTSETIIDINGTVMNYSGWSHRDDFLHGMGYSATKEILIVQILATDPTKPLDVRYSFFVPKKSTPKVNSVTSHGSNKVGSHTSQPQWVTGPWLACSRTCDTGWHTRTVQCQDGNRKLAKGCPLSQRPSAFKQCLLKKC

SMILES	IC50 (human MMP13 [1])	IC50 (human TACE; 5FAM-LAQAVRSSSRK-5TAMRA)	IC50 (rnADAMTS-5 (1-564-6H))	IC50 (human ADAMTS6)	IC50 (human ADAMTS-5 [2])	IC50 (human TACE; 5FAM-[…]-5TAMRA)	IC50 (human ADAMTS-5 [3])	IC50 (human MMP14)	IC50 (human MMP13 [4])
C[C@@H](C[C@@]1(C2CC2)NC(=O)NC1=O)C(=O)N1CCC(c2ccccc2)CC1 [Cpd 20]	> 100 nM	> 100 nM	50 to 100 nM	> 100 nM	50 to 100 nM	–	–	–	–
O=C1NC(=O)C(CCC(=O)N2CCC(c3cc(Cl)cc(Cl)c3)CC2)(C2CC2)N1 (stereo not shown) [Cpd 17, 5-cyclopropyl-5-(3-(4-(3,5-dichlorophenyl)piperidin-1-yl)-3-oxopropyl) imidazolidine-2,4-dione]	> 100 nM	> 100 nM	50 to 100 nM	50 to 100 nM	50 to 100 nM	–	–	–	–
C[C@@H](C[C@@]1(C)NC(=O)NC1=O)C(=O)N1CCC(c2cc(Cl)cc(Cl)c2)CC1 (stereo in doubt) [Cpd 25, 5-(3-(4-(3,5-dichlorophenyl)piperidin-1-yl)-2-methyl-3-oxopropyl)-5-methyl-imidazolidine-2,4-dione]	> 100 nM	–	25 to 50 nM	0.001 to 25 nM	25 to 50 nM	50 to 100 nM	–	–	–
C[C@@H](C[C@@]1(C)NC(=O)NC1=O)C(=O)N1CCC(c2ccc(F)cc2)CC1 (stereo in doubt) [Cpd 26, 5-(3-(4-(4-fluorophenyl)piperidin-1-yl)-2-methyl-3-oxopropyl)-5-methyl-imidazolidine-2,4-dione]	> 100 nM	> 100 nM	50 to 100 nM	25 to 50 nM	50 to 100 nM	–	–	–	–
Cc1cccc(C2CCN(C(=O)CCC3(C)NC(=O)NC3=O)CC2)c1 (stereo not shown) [Cpd 15, 5-methyl-5-(3-oxo-3-(4-m-tolylpiperidin-1-yl)propyl) imidazolidine-2,4-dione]	–	–	–	> 100 nM	–	–	> 100 nM	–	–
COc1cc(C2CCN(C(=O)CCC3(C)NC(=O)NC3=O)CC2)cc(OC)c1Cl (stereo not shown) [Cpd 22, 5-(3-(4-(4-chloro-3,5-dimethoxy-phenyl)piperidin-1-yl)-3-oxopropyl)-5-methyl-imidazolidine-2,4-dione]	> 100 nM	–	> 100 nM	0.001 to 25 nM	> 100 nM	50 to 100 nM	–	–	–
Cc1cccc(C2CCN(C(=O)[C@@H](C)C[C@@]3(C)NC(=O)NC3=O)CC2)c1 (stereo in doubt) [Cpd 27, 5-methyl-5-(2-methyl-3-oxo-3-(4-m-tolylpiperidin-yl)propyl) imidazolidine-2,4-dione]	> 100 nM	–	25 to 50 nM	25 to 50 nM	25 to 50 nM	50 to 100 nM	–	–	–
CC1(CCC(=O)N2CCC(c3cccc(F)c3)CC2)NC(=O)NC1=O (stereo not shown) [Cpd 13, 5-(3-(4-(3-fluorophenyl)piperidin-1-yl)-3-oxopropyl)-5-methyl-imidazolidine-2,4-dione]	–	–	–	> 100 nM	–	–	> 100 nM	–	–
C[C@@H](C[C@@]1(C)NC(=O)NC1=O)C(=O)N1CCC(c2cccc(Cl)c2)CC1 (stereo in doubt) [Cpd 29, 5-(3-(4-(3-chlorophenyl)piperidin-1-yl)-2-methyl-3-oxopropyl)-5-methyl-imidazolidine-2,4-dione]	> 100 nM	–	0.001 to 25 nM	25 to 50 nM	25 to 50 nM	50 to 100 nM	–	–	–
C[C@@H](C[C@@]1(C)NC(=O)NC1=O)C(=O)N1CCC(c2ccc(Cl)cc2)CC1 (stereo in doubt) [Cpd 24, 5-(3-(4-(4-chlorophenyl)piperidin-1-yl)-2-methyl-3-oxopropyl)-5-methyl imidazolidine-2,4-dione]	> 100 nM	> 100 nM	50 to 100 nM	0.001 to 25 nM	50 to 100 nM	–	–	–	–
Cc1ccc(C2CCN(C(=O)CCC3(C)NC(=O)NC3=O)CC2)cc1 (stereo not shown) [Cpd 8, 5-methyl-5-(3-oxo-3-(4-p-tolylpiperidin-1-yl)propyl) imidazolidine-2,4-dione]	–	–	–	> 100 nM	–	–	> 100 nM	–	–
C[C@@H](C[C@@]1(C)NC(=O)NC1=O)C(=O)N1CCC(c2cccc(F)c2)CC1 (stereo in doubt) [Cpd 28, 5-(3-(4-(3-fluorophenyl)piperidin-1-yl)-2-methyl-3-oxopropyl)-5-methyl-imidazolidine-2,4-dione]	> 100 nM	> 100 nM	0.001 to 25 nM	50 to 100 nM	25 to 50 nM	–	–	–	–
C[C@@H](C[C@@]1(C)NC(=O)NC1=O)C(=O)N1CCC(c2ccccc2)CC1 [Cpd 23, (R)-5-methyl-5-((S)-2-methyl-3-oxo-3-(4-phenylpiperidin-1-yl)propyl) imidazolidine-2,4-dione]	> 100 nM	> 100 nM	50 to 100 nM	50 to 100 nM	50 to 100 nM	–	–	–	–
O=C1NC(=O)C(CCC(=O)N2CCC(c3cccc(F)c3)CC2)(C2CC2)N1 (stereo not shown) [Cpd 19, 5-cyclopropyl-5-(3-(4-(3-fluorophenyl)piperidin-1-yl)-3-oxopropyl) imidazolidine-2,4-dione]	> 100 nM	> 100 nM	25 to 50 nM	> 100 nM	25 to 50 nM	–	–	–	–
COc1cc(F)c(Cl)cc1C1CCN(C(=O)CC[C@@]2(C)NC(=O)NC2=O)CC1 [Cpd 101, (5R)-5-[3-[4-(5-chloro-4-fluoro-2-methoxy-phenyl)-1-piperidyl]-3-oxo-propyl]-5-methyl-imidazolidine-2,4-dione]	–	> 100 nM	–	25 to 50 nM	> 100 nM	–	–	> 100 nM	> 100 nM
COC[C@]1(C[C@H](C)C(=O)N2CCC(c3cc(C)c(Cl)c(OC)c3)CC2)NC(=O)NC1=O (stereo in doubt) [Cpd 114, 5-[3-[4-(4-chloro-3-methoxy-5-methyl-phenyl)-1-piperidyl]-2-methyl-3-oxo-propyl]-5-(methoxymethyl) imidazolidine-2,4-dione]	–	–	–	0.001 to 25 nM	25 to 50 nM	50 to 100 nM	–	> 100 nM	> 100 nM
COc1cc(C2CCN(C(=O)CCC3(C)NC(=O)NC3=O)CC2)cc(Cl)c1F (stereo not shown) [Cpd 73, 5-(3-(4-(3-chloro-4-fluoro-5-methoxyphenyl)piperidin-1-yl)-3-oxopropyl)-5-methylimidazolidine-2,4-dione]	–	> 100 nM	–	0.001 to 25 nM	> 100 nM	–	–	> 100 nM	> 100 nM
COc1cc(C2CCN(C(=O)CC[C@H]3NC(=O)NC3=O)CC2)cc(OC)c1Cl [Cpd 21, (R)-5-(3-(4-(4-chloro-3,5-dimethoxy-phenyl)piperidin-1-yl)-3-oxopropyl) imidazolidine-2,4-dione]	> 100 nM	> 100 nM	> 100 nM	0.001 to 25 nM	> 100 nM	–	–	–	–
O=C1NC(=O)C(CCC(=O)N2CCC(c3cccc(Cl)c3)CC2)(C2CC2)N1 (stereo not shown) [Cpd 18, 5-(3-(4-(3-chlorophenyl)piperidin-1-yl)-3-oxopropyl)-5-cyclopropyl-imidazolidine-2,4-dione]	> 100 nM	> 100 nM	50 to 100 nM	> 100 nM	25 to 50 nM	–	–	–	–
COc1c(Cl)cccc1C1CCN(C(=O)CCC2(C)NC(=O)NC2=O)CC1 (stereo not shown) [Cpd 75, 5-(3-(4-(3-chloro-2-methoxyphenyl)piperidin-1-yl)-3-oxopropyl)-5-methylimidazolidine-2,4-dione]	–	> 100 nM	–	> 100 nM	> 100 nM	–	–	> 100 nM	> 100 nM
